# What was measured:
# Experiment in all cases: Cancer cell growth inhibition, SRB assay
# TOV-21G = type: cell-based; settings: Homo sapiens, TOV21G, 144 h; SRB at Day 6; triplicate
# SW480 = type: cell-based, human; settings: Homo sapiens, 144 h; SW480 (Colon); SRB at Day 6; triplicate
# H460 = type: cell-based, human; settings: H460; at 10 μM; SRB at Day 6; NE = no activity at 10 micromolar
# Outline: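 Cells were seeded at 1,500-5,000 per well and, after 24 h, switched from DMEM with 10% FBS to DMEM with 3% FBS before compound addition at 0.1% final DMSO. Viability was measured by SRB staining on Day 6, and GI50 was taken as the concentration giving 50% growth inhibition versus DMSO-treated controls.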
# HCT-8 = type: cell-based, human; settings: at 10 μM, SRB at Day 6
# MCF-7 = type: cell-based, human; set-up: Percentage of Growth Inhibition: scale not given here; settings: MCF-7; at 10 μM; SRB at Day 6; NE = no activity at 10 micromolar
# Method: Human cancer cells (MCF-7, H358, H460, HCT116 p53^+/+, HCT116 p53^−/−, A172, PC-3, DU-145 and SW626) were maintained in DMEM medium containing 10% Fetal Bovine Serum (FBS) (Invitrogen, Burlington, ON, Canada) and normal cells HMEC, 184A1, NHBE and PrEC were cultured in MEGM, MEGM plus transferring and cholera toxin, BEGM and PrEGM supplemented with various growth factors (Cambrex, Charles city, Iowa, USA), respectively.
# Compounds of Examples S1 to S30, and 4-(carboxymethyl)-4-(6-(3-hexyloxy)phenoxy)hexanoamido)-1,1-dimethylpiperidinium 2,2,2-trifluoroactate (“Compound A”) were tested in this example. Each of the tested compounds was dissolved in DMSO and further diluted in cell culture medium for the experiments performed. Cells were seeded into 96-well plates with 1,500-5,000 cells/well according to cell growth rate. After 24 h, DMEM medium containing 10% FBS were changed to DMEM containing 3% FBS for cancer cells. The compound was added into the cell culture at the indicated concentrations, and the final concentration of DMSO was adjusted to a final concentration of 0.1%. Cell viability was assessed by Sulforhodamine B (SRB) assay at Day 6.
# Sulforhodamine B (SRB) (Sigma, Oakville, ON, Canada) is a water-soluble dye that binds to the basic amino acids of the cellular proteins. Thus, colorimetric measurement of the bound dye provides an estimate of the total protein mass that is related to the cell number. The cells were fixed in situ by gently aspirating off the culture media and adding 50 ul of cold 10% Tri-chloroacetic Acid (TCA) per well and incubated at 4° C. for 30-60 min. The plates were washed five times with water and allowed to air dry for 5 min. 50 ul of 0.4% (w/v) SRB dissolved in 1% (v/v) acetic acid were added into each well, plates were then incubated at RT for 30 min for staining, washed four times with 1% acetic acid to remove any unbound dye and then allowed to air dry for 5 min. Stain was solubilized with 100 ul of 10 mM Tris pH 10.5 per well. Absorbance was read at 570 nm on a spectrophotometer. GI50 (compound concentration required for 50% of growth inhibition) was calculated using GraphPad Prism 4.0 software (GraphPad Software, Inc., San Diego, Calif., USA). Growth inhibition (%) was determined as percentage of cells remaining compared to the DMSO-treated cells as control.
# MDA-231 = type: cell-based, human; settings: MDA-231; at 10 μM; SRB at Day 6; NE = no activity at 10 micromolar
Compound,GI50 (TOV-21G),GI50 (SW480),Percentage of Growth Inhibition (H460),Percentage of Growth Inhibition (HCT-8),Percentage of Growth Inhibition (MCF-7),Percentage of Growth Inhibition (MDA-231)
"CCCCCc1ccc(S(=O)(=O)NC2(CC(=O)O)CC[N+](C)(C)CC2)cc1 [Example S4, 4-(Carboxymethyl)-1,1-dimethyl-4-(4-pentylphenylsulfonamido)piperidinium 2,2,2-trifluoroacetate]",44 µM,> 50 µM,–,–,–,–
"CCCCCc1ccc(S(=O)(=O)NC2(CC(=O)O)CN(C)C2)cc1 [Example S27, 3-(carboxymethyl)-1-methyl-3-(4-pentylphenylsulfonamido)azetidinium 2,2,2-trifluoroacetate]",–,–,0.00556%,0.09153%,0.05347%,0.1338%

# From US8680282B2, “Cyclic inhibitors of carnitine palmitoyltransferase and treating cancer” (University Health Network, priority 2007, dated 2014)
